According to the supplement of paper PMC10307832:

Legend:
Assay in all cases: relative viability (nuclei count vs DMSO), 5 days (fraction); higher = more cells survive
Seliciclib = compound: CC[C@H](CO)Nc1nc(NCc2ccccc2)c2ncn(C(C)C)c2n1 [Seliciclib]
Summary of the method: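 A plate was accepted only when its control CV was below 25% and the cells had doubled at least once. Viability is defined from nuclear counts as treated wells divided by vehicle wells, with the median taken across plates. That median covers lung cancer cell lines grown in 1536-well plates, dosed by pinning at five √10-spaced library-drug concentrations, and counted in MetaXpress from 4× Hoechst images after 5 days.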

Seliciclib + Trametinib = compound: CC[C@H](CO)Nc1nc(NCc2ccccc2)c2ncn(C(C)C)c2n1 [Seliciclib] + CC(=O)Nc1cccc(-n2c(=O)n(C3CC3)c(=O)c3c(Nc4ccc(I)cc4F)n(C)c(=O)c(C)c32)c1 [Trametinib] (partner 0.02 µM)
Summary of the method: (§1)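 Each reported value is a median over duplicate plates. It expresses relative viability: treated-well nuclei count divided by vehicle-well nuclei count. Lung cancer cell lines in 1536-well plates were dosed by pin tool a day after seeding, alone with one drug or with a fixed anchor-drug dose plus five library-drug doses (not always all listed) in √10 steps, and nuclei were counted after 5 days.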

Seliciclib + OSI-027 = compound: CC[C@H](CO)Nc1nc(NCc2ccccc2)c2ncn(C(C)C)c2n1 [Seliciclib] + COc1cccc2cc(-c3nc([C@H]4CC[C@H](C(=O)O)CC4)n4ncnc(N)c34)[nH]c12 [OSI-027] (partner 0.5 µM)
Summary of the method: as §1

Seliciclib + Phenformin = compound: CC[C@H](CO)Nc1nc(NCc2ccccc2)c2ncn(C(C)C)c2n1 [Seliciclib] + N=C(N)NC(=N)NCCc1ccccc1 [Phenformin] (partner 250 µM)
Summary of the method: as §1

NCI-H2347 was tested, and the relative viability (Seliciclib; 0.08 µM) was 0.982, the relative viability (Seliciclib; 0.253 µM) was 1.08 and the relative viability (Seliciclib; 0.8 µM) was 0.936. It also gave a relative viability (Seliciclib; 2.53 µM) of 0.994, a relative viability (Seliciclib; 8 µM) of 0.95 and a relative viability (Seliciclib + Trametinib; first compound 0.08 µM) of 0.259. The relative viability (Seliciclib + Trametinib; first compound 0.253 µM) was 0.323, the relative viability (Seliciclib + Trametinib; first compound 0.8 µM) was 0.331 and the relative viability (Seliciclib + Trametinib; first compound 2.53 µM) was 0.278. For the same cell line, the relative viability (Seliciclib + Trametinib; first compound 8 µM) was 0.279, the relative viability (Seliciclib + OSI-027; first compound 0.08 µM) was 0.431 and the relative viability (Seliciclib + OSI-027; first compound 0.253 µM) was 0.475. The relative viability (Seliciclib + OSI-027; first compound 0.8 µM) was 0.452, the relative viability (Seliciclib + OSI-027; first compound 2.53 µM) was 0.339 and the relative viability (Seliciclib + OSI-027; first compound 8 µM) was 0.343. The relative viability (Seliciclib + Phenformin; first compound 0.08 µM) was 0.536, the relative viability (Seliciclib + Phenformin; first compound 0.253 µM) was 0.397 and the relative viability (Seliciclib + Phenformin; first compound 0.8 µM) was 0.319. The relative viability (Seliciclib + Phenformin; first compound 2.53 µM) was 0.298 and the relative viability (Seliciclib + Phenformin; first compound 8 µM) was 0.408.
NCI-H2405 showed a relative viability (Seliciclib; 0.08 µM) of 0.919, a relative viability (Seliciclib; 0.253 µM) of 1.02 and a relative viability (Seliciclib; 0.8 µM) of 0.976. For the same cell line, the relative viability (Seliciclib; 2.53 µM) was 0.804, the relative viability (Seliciclib; 8 µM) was 0.872 and the relative viability (Seliciclib + Trametinib; first compound 0.08 µM) was 0.631. For the same cell line, the relative viability (Seliciclib + Trametinib; first compound 0.253 µM) was 0.44, the relative viability (Seliciclib + Trametinib; first compound 0.8 µM) was 0.664 and the relative viability (Seliciclib + Trametinib; first compound 2.53 µM) was 0.509. The relative viability (Seliciclib + Trametinib; first compound 8 µM) was 0.591, the relative viability (Seliciclib + OSI-027; first compound 0.08 µM) was 0.616 and the relative viability (Seliciclib + OSI-027; first compound 0.253 µM) was 0.669. It also gave a relative viability (Seliciclib + OSI-027; first compound 0.8 µM) of 0.689, a relative viability (Seliciclib + OSI-027; first compound 2.53 µM) of 0.291 and a relative viability (Seliciclib + OSI-027; first compound 8 µM) of 0.555. For the same cell line, the relative viability (Seliciclib + Phenformin; first compound 0.08 µM) was 0.362, the relative viability (Seliciclib + Phenformin; first compound 0.253 µM) was 0.399 and the relative viability (Seliciclib + Phenformin; first compound 0.8 µM) was 0.319. The relative viability (Seliciclib + Phenformin; first compound 2.53 µM) was 0.324 and the relative viability (Seliciclib + Phenformin; first compound 8 µM) was 0.355.
For NCI-H3122, the relative viability (Seliciclib; 0.08 µM) was 0.994, the relative viability (Seliciclib; 0.253 µM) was 0.947 and the relative viability (Seliciclib; 0.8 µM) was 0.883. For the same cell line, the relative viability (Seliciclib; 2.53 µM) was 0.983, the relative viability (Seliciclib; 8 µM) was 0.894 and the relative viability (Seliciclib + Trametinib; first compound 0.08 µM) was 0.225. For the same cell line, the relative viability (Seliciclib + Trametinib; first compound 0.253 µM) was 0.136, the relative viability (Seliciclib + Trametinib; first compound 0.8 µM) was 0.234 and the relative viability (Seliciclib + Trametinib; first compound 2.53 µM) was 0.211. It also gave a relative viability (Seliciclib + Trametinib; first compound 8 µM) of 0.221, a relative viability (Seliciclib + OSI-027; first compound 0.08 µM) of 0.979 and a relative viability (Seliciclib + OSI-027; first compound 0.253 µM) of 0.53. It also gave a relative viability (Seliciclib + OSI-027; first compound 0.8 µM) of 0.769, a relative viability (Seliciclib + OSI-027; first compound 2.53 µM) of 0.744 and a relative viability (Seliciclib + OSI-027; first compound 8 µM) of 0.778. For the same cell line, the relative viability (Seliciclib + Phenformin; first compound 0.08 µM) was 0.374, the relative viability (Seliciclib + Phenformin; first compound 0.253 µM) was 0.439 and the relative viability (Seliciclib + Phenformin; first compound 0.8 µM) was 0.368. The relative viability (Seliciclib + Phenformin; first compound 2.53 µM) was 0.384 and the relative viability (Seliciclib + Phenformin; first compound 8 µM) was 0.353.
In the case of PC-3 [JPC-3], the relative viability (Seliciclib; 0.08 µM) is reported as 1.03, the relative viability (Seliciclib; 0.253 µM) is reported as 1.08 and the relative viability (Seliciclib; 0.8 µM) is reported as 0.994. The relative viability (Seliciclib; 2.53 µM) was 0.928, the relative viability (Seliciclib; 8 µM) was 0.913 and the relative viability (Seliciclib + Trametinib; first compound 0.08 µM) was 0.754. For the same cell line, the relative viability (Seliciclib + Trametinib; first compound 0.253 µM) was 0.861, the relative viability (Seliciclib + Trametinib; first compound 0.8 µM) was 0.721 and the relative viability (Seliciclib + Trametinib; first compound 2.53 µM) was 0.577. For the same cell line, the relative viability (Seliciclib + Trametinib; first compound 8 µM) was 0.528, the relative viability (Seliciclib + OSI-027; first compound 0.08 µM) was 0.727 and the relative viability (Seliciclib + OSI-027; first compound 0.253 µM) was 0.761. The relative viability (Seliciclib + OSI-027; first compound 0.8 µM) was 0.716, the relative viability (Seliciclib + OSI-027; first compound 2.53 µM) was 0.65 and the relative viability (Seliciclib + OSI-027; first compound 8 µM) was 0.672. For the same cell line, the relative viability (Seliciclib + Phenformin; first compound 0.08 µM) was 0.477, the relative viability (Seliciclib + Phenformin; first compound 0.253 µM) was 0.459 and the relative viability (Seliciclib + Phenformin; first compound 0.8 µM) was 0.453. It also gave a relative viability (Seliciclib + Phenformin; first compound 2.53 µM) of 0.49 and a relative viability (Seliciclib + Phenformin; first compound 8 µM) of 0.433.
In the case of PC-14, the relative viability (Seliciclib; 0.08 µM) is reported as 0.995, the relative viability (Seliciclib; 0.253 µM) is reported as 1.03 and the relative viability (Seliciclib; 0.8 µM) is reported as 1.02. The relative viability (Seliciclib; 2.53 µM) was 0.987, the relative viability (Seliciclib; 8 µM) was 0.859 and the relative viability (Seliciclib + Trametinib; first compound 0.08 µM) was 0.788. For the same cell line, the relative viability (Seliciclib + Trametinib; first compound 0.253 µM) was 0.529, the relative viability (Seliciclib + Trametinib; first compound 0.8 µM) was 0.719 and the relative viability (Seliciclib + Trametinib; first compound 2.53 µM) was 0.721. It also gave a relative viability (Seliciclib + Trametinib; first compound 8 µM) of 0.532, a relative viability (Seliciclib + OSI-027; first compound 0.08 µM) of 0.844 and a relative viability (Seliciclib + OSI-027; first compound 0.253 µM) of 0.736. For the same cell line, the relative viability (Seliciclib + OSI-027; first compound 0.8 µM) was 0.749, the relative viability (Seliciclib + OSI-027; first compound 2.53 µM) was 0.494 and the relative viability (Seliciclib + OSI-027; first compound 8 µM) was 0.709. It also gave a relative viability (Seliciclib + Phenformin; first compound 0.08 µM) of 0.665, a relative viability (Seliciclib + Phenformin; first compound 0.253 µM) of 0.431 and a relative viability (Seliciclib + Phenformin; first compound 0.8 µM) of 0.553. The relative viability (Seliciclib + Phenformin; first compound 2.53 µM) was 0.463 and the relative viability (Seliciclib + Phenformin; first compound 8 µM) was 0.319.
